Data reported in patent US20060020036A1, “Methods and compositions to promote bone homestasis” (priority 2004, published 2006).

Test system: calvarial skull bones (hemicalvaria)
Test: Calvarial skull assay (bone organ culture)
Type: cell-based, CD1 mice
Method: CD1 pups are harvested around birth from CD1 female mice (received from Janvier (Le Genest St Isle, France) when they were 11 days pregnant). Pups are decapitated and the calvarial skull is dissected and split into 2 hemicalvaria. Hemicalvaria are blotted using sterile gauze, weighed and cultured in 24 well plates (MEMalpha or BGJb-Fitton-Jackson medium containing 50 μg/ml L-ascorbic acid (Sigma, A-4034), 5 mM β-glycerophosphate (Sigma, G-9891) and Penicillin-Streptomycin (Invitrogen Cat # 15140-122)). Small molecules (ligands, agonists, antagonists) are tested in at least three-fold at a minimum of 3 concentrations. Each small molecule is added to the medium on day 0 and added again when refreshing the medium (every 2-3 days). Three to 16 days after the start of the experiment, skulls are weighed again after blotting them dry using sterile gauze. The weight difference is calculated, expressed as percent weight change and the mean and standard deviations (SD) are calculated for the triplicate measurements. Data are analyzed using the Student's t-test.
The formation of new osteoid is analyzed histologically as follows: hemicalvaria are fixed in 10% buffered formalin for at least 2 days, decalcified in 10% EDTA overnight, processed through graded alcohols and embedded in paraffin wax. Three to 10 μm sections are prepared of the calvaria and stained with hematoxylin and eosin (H&E). Healthy cells, dead cells, old and new bone, and collagen are identified by their distinctive morphology and colouring observed after H&E staining. The surfaces taken by these are measured stereologically (μm^2 readout) and termed Osteoblast area, Debris area, Native and New bone area, Collagen area and Total area (sum of the previous 5 areas), respectively. In addition, the thickness (μm readout) is measured at 8 positions, evenly spaced over the section.
The histological readout of the calvarial skull assay is developed using known osteogenic agents. Hemicalvaria were treated with recombinant human parathyroid hormone (rhPTH).
T0901317 is added to the culture medium of the dissected hemicalvaria at the day of dissection at several doses (19.5, 78.1 and 313 nM), in fourfold. The concentration of the solvent (vehicle), DMSO, is fixed at a final concentration of 0.05%. The medium, containing T0901317 or vehicle control is refreshed every 2-3 days. Hemicalvaria are harvested 7 days after the initiation of the experiment and subjected to the histological analysis described above.

[1] = 19.5, 78.1 and 313 nM, 7 days, histology (H&E)

SMILES: O=S(=O)(c1ccccc1)N(CC(F)(F)F)c1ccc(C(O)(C(F)(F)F)C(F)(F)F)cc1 [T0901317, N-(2,2,2-trifluoroethyl)-N-[4-[2,2,2-trifluoro-1-hydroxy-1-(trifluoromethyl)ethyl]phenyl]-benzenesulfonamide]
- dose-response activity towards areas of osteoblast (19.5, 78.1 and 313 nM, 7 days): Dose-response activity of the compound is observed
- dose-response activity towards thickness (19.5, 78.1 and 313 nM, 7 days): Dose-response activity of the compound is observed
- dose-response activity towards total area (sum of all areas measured) (19.5, 78.1 and 313 nM, 7 days): Dose-response activity of the compound is observed
- areas of collagen [1]: Statistically significant increases
- areas of new bone [1]: Statistically significant increases
- areas of osteoblast [1]: Statistically significant increases
- weight increases in calvarial skull explants (FIG. 18): Weight increases
